The source of these data is patent US20090105234A1, “EP4 Receptor Agonist, Compositions and Methods Thereof” (priority 2005, published 2009).

Structures are written as SMILES.

Data set [1] in a line: Eye closure after ocular dosing. It is filed as in vivo, New Zealand White rabbits. The conditions noted are these: versus Example 2 of WO 2004/085430.
The nature of data set [2]: Vehicle panel-controlled 5 day ocular tolerability study (topical, bilateral, b.i.d). The note with it: 5 days, 2.2 μM (25 μL) ophthalmic solution. The data set is classed as in vivo, Dutch-Belted rabbits.
Data set [3] can be described thus: Ocular adverse effects (conjuctival hyperemia, partial eye closure, etc.). The data set is classed as in vivo, Cynomolgus Monkeys. The conditions noted are these: versus Example 2 of WO 2004/085430.
Data set [4] can be described thus: Ocular tolerability in animal species compared to compounds of WO 2004/085430. It is filed as in vivo. The conditions noted are these: compared to compounds disclosed in WO 2004/085430 (i.e., Example 2).
The subject of the next data set is EP2 mRNA in bone tissue. Kind of data set: EP2 mRNA in vivo in bone tissue after systemic PGE2. The conditions noted are these: rats, systemic administration. The procedure:
(§1) For mRNA localization experiments, 5-week old Sprague-Dawley rats (Charles River) are euthanized by CO2, their tibiae and calvariae are excised, cleaned of soft tissues and frozen immediately in liquid nitrogen. For EP4 regulation experiments, 6-week old rats are given a single injection of either vehicle (7% ethanol in sterile water) or an anabolic dose of PGE2 (Cayman Chemical, Ann Arbor, Mich.), 3-6 mg/kg in the same vehicle) intraperitoneally. Animals are euthanized at several time points post-injection and their tibiae and calvariae, as well as samples from lung and kidney tissues are frozen in liquid nitrogen.
Total RNA is extracted from the tibial metaphysis or diaphysis and calvaria using a guanidinium isothiocyanate-phenol-chloroform method after pulverizing frozen bone samples by a tissue homogenizer. See P. Chomczynski et al., Single-step method of RNA isolation by acid guanidium thiocyanate-phenol-chloroform extraction., Analyt Biochem, 162, 156-159 (1987), which is incorporated by reference herein in its entirety. RNA samples ([…]) are separated on 0.9% agarose/formaldehyde gels and transferred onto nylon membranes (Boehringer Mannheim, Germany). […]

For a further data set, the system named is ROS 17/2.8 cells. In words: Intracellular cAMP in osteoblastic cells. The data set is classed as cell-based. The conditions noted are these: ROS 17/2.8 rat osteosarcoma cells. The procedure: (§2) RCT-1 and RCT-3 are clonal cell lines immortalized by SV40 large T antigen from cells released from fetal rat calvair by a cmbination collagenase/hyaluronidase digestion. RCT-1 cells, derived from cells released during the first 10 minutes of digestion (fraction I), are cultured in RPMI 1640 medium (BRL) with 10% fetal bovine serum and 0.4 mg/ml G418 (BRL). These cells differentiate and express osteoblastic features upon retinoic acid treatment. RCT-3 cells, immortalized from osteoblast-enriched fraction III cells, are cultured in F-12 medium (BRL) with 5% Fetal bovine serum and 0.4 mg/ml G418. TRAB-11 cells are also immortalized by SV40 large T antigen from adult rat tibia and are cultured in RPMI 1640 medium with 10% FBS and 0.4 mg/ml G418. ROS 17/2.8 rat osteosarcoma cells are cultured in F-12 containing 5% FBS. Osteoblast-enriched (fraction III) primary fetal rat calvaria cells are obtained by collagenase/hyaluronidase digestion of calvariae of 19 day-old rat fetuses. See Rodan et al., Growth stimulation of rat calvaria osieoblastic cells by acidic FGF, Endocrinology, 121, 1919-1923 (1987), which is incorporated by reference herein in its entirety. Cells are released during 30-50 minutes digestion (fraction III) and are cultured in F-12 medium containing 5% FBS. […]

For data set [5], the system named is EP4 mRNA in RP-1 periosteal cells. Kind of data set: EP4 mRNA levels (Northern blot) in RP-1 periosteal cells. It is filed as cell-based, rat. The conditions noted are these: 10^−6 M. On the procedure: (§3) RP-1 periosteal cells are spontaneously immortalized from primary cultures of periosteal cells from tibae of 4-week old Sprague-Dawley rats and are cultured in DMEM (BRL, Gaithersburg, Md.) with 10% fetal bovine serum (JRH Biosciences, Lenexa, Kans.).
(§4) Total RNA is extracted from the tibial metaphysis or diaphysis and calvaria using a guanidinium isothiocyanate-phenol-chloroform method after pulverizing frozen bone samples by a tissue homogenizer. See P. Chomczynski et al., Single-step method of RNA isolation by acid guanidium thiocyanate-phenol-chloroform extraction., Analyt Biochem, 162, 156-159 (1987), which is incorporated by reference herein in its entirety. RNA samples ([…]) are separated on 0.9% agarose/formaldehyde gels and transferred onto nylon membranes (Boehringer Mannheim, Germany). Membranes are prehybridized in Hybrisol I (Oncor, Gaithersburg, Md.) and 0.5 mg/ml sonicated salmon sperm DNA (Boehringer) at 42° C. for 3 hours and are hybridized at 42° C. with rat EP2 and mouse EP4 cDNA probes labeled with [^32P]-dCTP (Amersham, Buckinghamshire, UK) by random priming using the rediprime kit (Amersham). After hybridization, membranes are washed 4 times in 2×SSC+0.1% SDS at room temperature for a total of 1 hour and once with 0.2×SSC+0.1% SDS at 55° C. for 1 hour and then exposed to Kodak XAR 2 film at −70° C. using intensifying screens. […]

A further data set deals with EP4 mRNA in bone tissue. Kind of data set: EP4 mRNA levels in vivo in bone tissue after systemic PGE2. The conditions noted are these: five-week-old male rats, injected 3-6 mg/Kg.
Text: For mRNA localization experiments, 5-week old Sprague-Dawley rats (Charles River) are euthanized by CO2, their tibiae and calvariae are excised, cleaned of soft tissues and frozen immediately in liquid nitrogen. […] Animals are euthanized at several time points post-injection and their tibiae and calvariae, as well as samples from lung and kidney tissues are frozen in liquid nitrogen.
as §4, with “(Amersham).” for “(Amersham). After hybridization, membranes are washed 4 times in 2×SSC+0.1% SDS at room temperature for a total of 1 hour and once with 0.2×SSC+0.1% SDS at 55° C. for 1 hour and then exposed to Kodak XAR 2 film at −70° C. using intensifying screens.”

In the next data set the test system is EP4 mRNA in RCT-3 cells. In words: EP4 mRNA levels (Northern blot) in RCT-3 cells. The data set is classed as cell-based, rat. On the procedure:
as §2

Another data set deals with TRAB-11 cells. Kind of data set: Intracellular cAMP in osteoblastic cells. It is filed as cell-based, rat. The procedure: as §2
A further data set concerns RCT-3 cells. In words: Intracellular cAMP in osteoblastic cells. The data set is classed as cell-based, rat. On the procedure:
as §2

The subject of the next data set is EP2 mRNA in RP-1 cells. Kind of data set: EP2 mRNA expression (Northern blot) in RP-1 cells. It is filed as cell-based, rat. On the procedure:
as §3, §4

Data set [6] has as its system EP4 mRNA in bone marrow cells. Kind of data set: In situ hybridization, localization of EP4 expression in bone. The data set is classed as in vivo. The note with it: single anabolic dose, versus vehicle-injected rats. On the procedure:
as §1
Frozen tibiae are sectioned coronally at […] thickness and sections are mounted on charged slides (Probe On Plus, Fisher Scientific, Springfield, N.J.) and are kept at −70° C. until hybridization. cRNA probes are labeled with ^35S-UTPgS (ICN, Costa Mesa, Calif.) using a Riboprobe II kit (Promega Madison, Wis.). Hybridization is performed overnight at 50° C. See M. Weinreb et al., Different pattern of alkaline phosphalase, osteopontin and osteocalcin expression in developing rat bone visualized by in-situ hybridization, J. Bone Miner Res., 5, 83′-842 (1990) and D. Shinar et al., Expression of alphav and beta3 integrin subunits in rat osteoclasts in situ, J. Bone Miner. Res., 8, 403-414 (1993), which are both incorporated by reference herein in their entirety. […]

As for `CC(C)OC(=O)c1ccc(CCCN2C(=O)OCC[C@@H]2/C=C/[C@@H](O)C(F)(F)c2cccc(Br)c2)s1` [Example 1, Isopropyl 5-(3-{(4R)-4-[(1E,3R)-4-(3-bromophenyl)-4,4-difluoro-3-hydroxybut-1-en-1-yl]-2-oxo-1,3-oxazinan-3-yl}propyl)thiophene-2-carboxylate], the “improvement in eye closure” value in data set [1] was found to be 5 fold. In addition, the “drug treatment related findings” value in data set [2] is listed as “no drug treatment related findings”. Further, in data set [3], the “improvement in ocular adverse effects (conjuctival hyperemia, partial eye closure, etc.)” value is 3-5 fold. Moreover, the ocular tolerability entry in data set [4] is given as “improved ocular tolerability”.

For the compound `CCCCC[C@H](O)/C=C/[C@H]1[C@H](O)CC(=O)[C@@H]1C/C=C\CCCC(=O)O` [PGE2], the “induction of EP2 mRNA in bone tissue” value with EP2 mRNA in bone tissue was “does not induce EP2 mRNA”. For the same compound, the “effect on intracellular cAMP” value is “no effect” in the data set on ROS 17/2.8 cells, “markedly induced” with TRAB-11 cells and “markedly induced” in the data set on RCT-3 cells. For the same compound, the “effect on EP4 mRNA levels” value is “rapidly increases EP4 mRNA levels” in data set [5] and “no effect on EP4 mRNA levels” with EP4 mRNA in RCT-3 cells. For the same compound, the “time of peak EP4 mRNA levels after treatment” value in data set [5] came out at 2 h. The “effect on EP4 mRNA levels in the tibial diaphysis” value in the data set on EP4 mRNA in bone tissue was “rapidly increased EP4 mRNA levels”. Also, the “time of peak EP4 mRNA levels in the tibial diaphysis after injection” value in the data set with EP4 mRNA in bone tissue was 2 h. For the same compound, the “EP2 mRNA expression before or after treatment” value with EP2 mRNA in RP-1 cells is “not expressed”. Moreover, the “expression of EP4 in bone marrow cells” value in [6] is on record as “increased the expression of EP4”.
